According to ChEMBL document CHEMBL5550201, “Discovery of a Highly Potent, Selective and Efficacious USP7 Degrader for the Treatment of Acute Lymphoblastic Leukemia” (J Med Chem, 2024):
Active and inactive are the calls of the source. The rule behind the calls is not given here.

How the values were obtained:
RS4-11 [1] = test: Upregulation of p53 protein expression in human RS4-11 cells measured after 12 hrs incubation by Western blot analysis; format: functional, cell-based; conditions: dose 10-100 nM
RS4-11 [2] = test: Upregulation of p21 protein expression in human RS4-11 cells measured after 12 hrs incubation by Western blot analysis; format: functional, cell-based; conditions: dose 10-100 nM
[3] = molecular target: T1, von Hippel-Lindau disease tumor suppressor/Ubiquitin carboxyl-terminal hydrolase 7 (Homo sapiens, UniProt Q93009+P40337); test: PROTACT activity at USP7/VHL in human RS4;11 cells assessed as protein degradation at 10 nM measured after 6 hrs in presence of VHL-binder by Western blot analysis; format: cell-based
[4] = molecular target: T1, von Hippel-Lindau disease tumor suppressor/Ubiquitin carboxyl-terminal hydrolase 7; test: PROTACT activity at USP7/VHL in human RS4;11 cells assessed as protein degradation at 10 nM measured after 6 hrs in presence of proteasome inhibitors PS-341 by Western blot analysis; format: cell-based
[5] = molecular target: T1, von Hippel-Lindau disease tumor suppressor/Ubiquitin carboxyl-terminal hydrolase 7; test: PROTACT activity at USP7/VHL in human RS4;11 cells assessed as protein degradation at 10 nM measured after 6 hrs in presence of proteasome inhibitors PS-171 by Western blot analysis; format: cell-based
[6] = molecular target: T1, von Hippel-Lindau disease tumor suppressor/Ubiquitin carboxyl-terminal hydrolase 7; test: PROTACT activity at USP7/VHL in human RS4;11 cells assessed as selective USP7 degradation at 100 nM measured after 4 hrs by proteomics analysis; format: cell-based
RS4-11 [7] = test: Induction of apoptosis in human RS4-11 cells assessed as late apoptotic cells at 10 nM measured after 72 hrs by FITC-annexin-V/PI analysis (reference value: 3.23%); format: functional
RS4-11 [8] = test: Induction of apoptosis in human RS4-11 cells assessed as necrotic cells at 10 nM measured after 72 hrs by FITC-annexin-V/PI analysis (reference value: 0%); format: functional
RS4-11 [9] = test: Induction of apoptosis in human RS4-11 cells assessed as necrotic cells at 100 nM measured after 72 hrs by FITC-annexin-V/PI analysis (reference value: 0%); format: functional
RS4-11 [10] = test: Antitumor activity against human RS4-11 cells xenografted in NOD/SCID mouse model assessed as tumor growth inhibition at 5 mg/kg, ip daily measured after 18 days relative to control; format: functional; conditions: RS4-11, 432 h, time 18 day, read-out: TGI

T1 sequence (P40337 whole entry, looked up): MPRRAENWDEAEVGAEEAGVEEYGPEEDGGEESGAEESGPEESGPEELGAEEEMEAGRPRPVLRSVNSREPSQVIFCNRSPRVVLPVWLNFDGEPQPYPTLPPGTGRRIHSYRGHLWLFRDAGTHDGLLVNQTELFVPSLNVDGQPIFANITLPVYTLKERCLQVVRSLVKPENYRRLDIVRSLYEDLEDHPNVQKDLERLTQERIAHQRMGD
T1 sequence (Q93009 whole entry, looked up): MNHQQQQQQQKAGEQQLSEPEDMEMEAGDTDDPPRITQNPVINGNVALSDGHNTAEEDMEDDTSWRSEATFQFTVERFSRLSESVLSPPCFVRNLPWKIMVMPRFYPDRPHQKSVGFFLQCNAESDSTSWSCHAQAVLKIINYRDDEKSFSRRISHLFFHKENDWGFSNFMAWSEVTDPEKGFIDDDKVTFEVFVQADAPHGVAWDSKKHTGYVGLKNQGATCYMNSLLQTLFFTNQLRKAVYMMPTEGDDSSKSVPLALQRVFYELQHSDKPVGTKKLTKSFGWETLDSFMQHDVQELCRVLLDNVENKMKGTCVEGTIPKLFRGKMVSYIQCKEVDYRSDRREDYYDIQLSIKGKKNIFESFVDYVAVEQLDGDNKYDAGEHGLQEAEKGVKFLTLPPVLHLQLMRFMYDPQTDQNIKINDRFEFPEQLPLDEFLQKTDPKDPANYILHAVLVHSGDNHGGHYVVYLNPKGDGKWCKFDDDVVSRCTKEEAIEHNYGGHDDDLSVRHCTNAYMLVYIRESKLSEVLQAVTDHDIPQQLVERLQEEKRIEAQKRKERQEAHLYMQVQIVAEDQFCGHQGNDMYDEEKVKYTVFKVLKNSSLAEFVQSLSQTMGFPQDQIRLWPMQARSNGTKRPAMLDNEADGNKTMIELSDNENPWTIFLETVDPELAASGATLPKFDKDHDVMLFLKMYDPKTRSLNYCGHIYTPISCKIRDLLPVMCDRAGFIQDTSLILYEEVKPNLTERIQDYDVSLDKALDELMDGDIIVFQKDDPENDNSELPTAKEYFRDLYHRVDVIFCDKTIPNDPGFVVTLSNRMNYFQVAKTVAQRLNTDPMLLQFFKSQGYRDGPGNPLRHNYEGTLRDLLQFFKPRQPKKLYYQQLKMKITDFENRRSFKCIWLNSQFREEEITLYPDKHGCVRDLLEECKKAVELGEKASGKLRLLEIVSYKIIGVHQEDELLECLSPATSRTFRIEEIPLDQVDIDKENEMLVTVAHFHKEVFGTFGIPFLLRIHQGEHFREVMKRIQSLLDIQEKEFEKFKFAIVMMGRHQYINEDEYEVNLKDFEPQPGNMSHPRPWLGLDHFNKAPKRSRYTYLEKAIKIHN

Cc1ncsc1-c1ccc([C@H](C)NC(=O)[C@@H]2C[C@@H](O)CN2C(=O)[C@@H](c2cc(N3CCN(Cc4ccc(-c5c6ncn(CC7(O)CCN(C(=O)C[C@@H](C)c8ccccc8)CC7)c(=O)c6nn5C)cc4)CC3)no2)C(C)C)cc1
Activity (RS4-11 [1]): Dose-Dependent Effect
Activity (RS4-11 [2]): Dose-Dependent Effect
Activity [3]: inactive
Activity [4]: inactive
Activity [5]: inactive
Activity [6]: Active
Activity (RS4-11 [7]): 16.98%
Activity (RS4-11 [8]): 0.01%
Activity (RS4-11 [9]): 0.01%
inhibition in vivo at 5 mg/kg (RS4-11 [10]): 64.7%
